Assay results published in patent publication US10370343B2, “[6,6] Fused bicyclic HDAC8 inhibitors” (FORMA Therapeutics, Inc., priority 2015, dated 2019).
Counter-ions that a name gives are not always drawn.

What follows are compounds tested against T1, Full length human recombinant HDAC8 protein (Homo sapiens, UniProt Q9BY41) (assay: In vitro histone deacetylase assay: enzymatic HDAC8 electrophoretic mobility shift assay). Settings: electrophoretic mobility shift assay; enzyme 1 nM; 2 μM fluorescently labeled peptide substrate RHKK(Ac)-NH2; 25° C.; 12 concentrations; read-out: HDAC8 IC50.
T1 construct: Full length human recombinant HDAC8 protein was expressed in baculoviral system; made in house
T1 sequence (Q9BY41 1-377): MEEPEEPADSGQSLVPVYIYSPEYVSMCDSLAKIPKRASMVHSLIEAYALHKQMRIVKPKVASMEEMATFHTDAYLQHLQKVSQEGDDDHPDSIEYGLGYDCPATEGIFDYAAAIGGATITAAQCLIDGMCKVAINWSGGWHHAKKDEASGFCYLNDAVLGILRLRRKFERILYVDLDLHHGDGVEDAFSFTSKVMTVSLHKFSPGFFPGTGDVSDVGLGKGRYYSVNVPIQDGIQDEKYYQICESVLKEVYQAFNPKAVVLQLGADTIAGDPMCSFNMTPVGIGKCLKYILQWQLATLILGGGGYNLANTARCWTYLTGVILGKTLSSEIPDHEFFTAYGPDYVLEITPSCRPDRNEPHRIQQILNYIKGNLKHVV
Type: biochemical
Method: The enzymatic HDAC8 assay was performed using electrophoretic mobility shift assay. Full length human recombinant HDAC8 protein was expressed in baculoviral system and purified by affinity chromatography. The enzymatic reactions were assembled in 384 well plates in a total volume of 25 μL in a reaction buffer composing: 100 mM HEPES, pH7.5, 25 mM KCl, 0.1% bovine serum albumin, 0.01% Triton X-100, 1% DMSO (from compounds) 2 μM of the fluorescently labeled peptide substrate and enzyme. The enzyme was added at a final concentration of 1 nM. The peptide substrate RHKK(Ac)—NH2 was used. The compounds were tested at 12 concentrations spaced by 3× dilution intervals. Negative control samples (0%-inhibition in the absence of inhibitor) and positive control samples (100%-inhibition) were assembled in replicates of four in each assay plate. The reactions were incubated at 25° C. and quenched by the addition of 45 μL of termination buffer (100 mM HEPES, pH 7.5, 0.01% Triton X-100, 0.05% SDS).
The terminated assay plates were analyzed on LabChip® 3000 microfluidic electrophoresis instrument (Perkin Elmer/Caliper Life Sciences). The fluorescence intensity of the electrophoretically separated de-acetylated product and substrate peptide was measured. Activity in each sample was determined as the product to sum ratio (PSR): P/(S+P), where P is the peak height of the product peptide and S is the peak height of the substrate peptide. Percent inhibition (Pinh) is determined using the following equation: Pinh=(PSR0%−PSRinh)/(PSR0%−PSR100%)*100, where PSRinh is the product sum ratio in the presence of inhibitor, PSR0% is the average product sum ration in the absence of inhibitor and PSR100% is the average product sum ratio in 100%-inhibition control samples. The IC50 values of inhibitors were determined by fitting the %-inhibition curves with 4 parameter dose-response model using XLfit 4 software.

IC50, < 25 nM:
O=C(NO)c1ccc2c(c1)N(Cc1ccc(F)c(F)c1)C(=O)CO2 [Compound I-71, 4-(3,4-difluorobenzyl)-N-hydroxy-3-oxo-3,4-dihydro-2H-benzo[b][1,4]oxazine-6-carboxamide]
O=C(NO)c1ccc2c(c1)N(Cc1ccc(S(=O)(=O)C(F)F)cc1)C(=O)CO2 [Compound I-88, 4-(4-((difluoromethyl)sulfonyl)benzyl)-N-hydroxy-3-oxo-3,4-dihydro-2H-benzo[b][1,4]oxazine-6-carboxamide]
O=C(NO)c1ccc2c(c1)N(Cc1cccc(S(=O)(=O)C(F)(F)F)c1)CCS2(=O)=O [Compound I-15, N-hydroxy-4-(3-((trifluoromethyl)sulfonyl)benzyl)-3,4-dihydro-2H-benzo[b][1,4]thiazine-6-carboxamide-1,1-dioxide]
O=C(NO)c1ccc2c(c1)N(Cc1ccc(C(F)(F)F)cc1)CCS2(=O)=O [Compound I-79, N-hydroxy-4-(4-(trifluoromethyl)benzyl)-3,4-dihydro-2H-benzo[b][1,4]thiazine-6-carboxamide 1,1-dioxide]
O=C(NO)c1ccc2c(c1)N(Cc1ccccc1F)C(=O)CO2 [Compound I-69, 4-(2-fluorobenzyl)-N-hydroxy-3-oxo-3,4-dihydro-2H-benzo[b][1,4]oxazine-6-carboxamide]
O=C(NO)c1ccc2c(c1)N(Cc1cc(C(F)(F)F)ccc1F)C(=O)CO2 [Compound I-73, 4-(2-fluoro-5-(trifluoromethyl)benzyl)-N-hydroxy-3-oxo-3,4-dihydro-2H-benzo[b][1,4]oxazine-6-carboxamide]

IC50, > 1000 nM:
O=C(NO)c1ccc2c(c1)N(C(=O)N1CCCCC1)CCO2 [Compound I-97, N-hydroxy-4-(piperidine-1-carbonyl)-3,4-dihydro-2H-benzo[b][1,4]oxazine-6-carboxamide]

IC50, 25 to 100 nM:
COc1cccc(CN2CCOc3ccc(C(=O)NO)cc32)c1 [Compound I-121, N-hydroxy-4-(3-methoxybenzyl)-3,4-dihydro-2H-benzo[b][1,4]oxazine-6-carboxamide]
CCCCCN1CCOc2ccc(C(=O)NO)cc21 [Compound I-78, N-hydroxy-4-pentyl-3,4-dihydro-2H-benzo[b][1,4]oxazine-6-carboxamide]
O=C(NO)c1ccc2c(c1)N(Cc1ccccc1OC(F)F)CCO2 [Compound I-131, 4-(2-(difluoromethoxy)benzyl)-N-hydroxy-3,4-dihydro-2H-benzo[b][1,4]oxazine-6-carboxamide]
O=C(NO)c1ccc2c(c1)N(Cc1ccccc1)CC(C(=O)N1CC3(CC3)c3ccccc31)O2 (centres unmarked) [Compound I-4, 4-benzyl-N-hydroxy-2-(spiro[cyclopropane-l,3′-indoline]-1′ carbonyl)-3,4-dihydro-2H-benzo[b][1,4]oxazine-6-carboxamide hydrochloride]
Cc1cccc(CN2CCOc3ccc(C(=O)NO)cc32)c1 [Compound I-122, N-hydroxy-4-(3-methylbenzyl)-3,4-dihydro-2H-benzo[b][1,4]oxazine-6-carboxamide]
CN(C)S(=O)(=O)c1ccc(OCCN2C(=O)COc3ccc(C(=O)NO)cc32)cc1 [Compound I-56, 4-(2-(4-(N,N-dimethylsulfamoyl)phenoxy)ethyl)-N-hydroxy-3-oxo-3,4-dihydro-2H-benzo[b][1,4]oxazine-6-carboxamide]
O=C(NO)c1ccc2c(c1)N(Cc1ccccc1SC(F)(F)F)C(=O)CO2 [Compound I-262, N-hydroxy-3-oxo-4-(2-((trifluoromethyl)thio)benzyl)-3,4-dihydro-2H-benzo[b][1,4]oxazine-6-carboxamide]

IC50, 100 to 1000 nM:
O=C(NO)c1ccc2c(c1)N(Cc1ccccc1OC(F)(F)F)CCO2 [Compound I-25, N-hydroxy-4-(2-(trifluoromethoxy)benzyl)-3,4-dihydro-2H-benzo[b][1,4]oxazine-6-carboxamide]
O=C(NO)c1ccc2c(c1)OC(C(=O)NCc1ccccc1)CN2Cc1ccccc1 (centres unmarked) [Compound I-12, N^2,4-dibenzyl-N^7-hydroxy-3,4-dihydro-2H-benzo[b][1,4]oxazine-2,7-dicarboxamide]
COc1cc(CN2CCOc3ccc(C(=O)NO)cc32)ccc1S(C)(=O)=O [Compound I-138, N-hydroxy-4-(3-methoxy-4-(methylsulfonyl)benzyl)-3,4-dihydro-2H-benzo[b][1,4]oxazine-6-carboxamide]
O=C(NO)c1ccc2c(c1)N(CC1CCS(=O)(=O)CC1)C(=O)CO2 [Compound I-49, 4-((1,1-dioxidotetrahydro-2H-thiopyran-4-yl)methyl)-N-hydroxy-3-oxo-3,4-dihydro-2H-benzo[b][1,4]oxazine-6-carboxamide]
O=C(NO)c1ccc2c(c1)N(Cc1ccccc1OC(F)(F)F)C(=O)CO2 [Compound I-66, N-hydroxy-3-oxo-4-(2-(trifluoromethoxy)benzyl)-3,4-dihydro-2H-benzo[b][1,4]oxazine-6-carboxamide]
COc1ccc(S(=O)(=O)N2CCOc3ccc(C(=O)NO)cc32)cc1 [Compound I-87, N-hydroxy-4-((4-methoxyphenyl)sulfonyl)-3,4-dihydro-2H-benzo[b][1,4]oxazine-6-carboxamide]

What follows are compounds tested against T2, Recombinant N-terminal GST tag full-length human HDAC8 (Homo sapiens, UniProt Q9BY41) (assay: HDAC8 probe binding assay, time resolved fluorescence (TRF) format). Settings: compounds grouped by IC50 range (Table 2).
T2 construct: Recombinant N-terminal GST tag full-length human HDAC8; purchased SignalChem H90-30G-1000; host or cells: baculovirus in Sf9 insect cells
T2 sequence (Q9BY41 1-377): T1 sequence (Q9BY41 1-377)
Method in brief: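 IC50 values come from four-parameter logistic fits of percent inhibition, scaled between DMSO (high) and no-enzyme (low) controls. Time-resolved fluorescence (ex 340, em 485/535 nm) was read after 16 h at room temperature. Enzyme was Sf9-expressed full-length human HDAC8 with an N-terminal GST tag, in a probe-binding format.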

IC50, ≤ 25 nM:
O=C(NO)c1ccc2c(c1)N(Cc1nc3cccnc3s1)C(=O)CO2 [Compound I-359, N-hydroxy-3-oxo-4-(thiazolo[5,4-b]pyridin-2-ylmethyl)-3,4-dihydro-2H-benzo[b][1,4]oxazine-6-carboxamide]
N#Cc1cccc(CN2C(=O)COc3ccc(C(=O)NO)cc32)c1 [Compound I-236, 4-(3-cyanobenzyl)-N-hydroxy-3-oxo-3,4-dihydro-2H-benzo[b][1,4]oxazine-6-carboxamide]

IC50, 25 to 100 nM:
O=C(NO)c1ccc2c(c1)N(Cc1ncn(-c3ccccc3)n1)C(=O)CO2 [Compound I-193, N-hydroxy-3-oxo-4-((1-phenyl-1H-1,2,4-triazol-3-yl)methyl)-3,4-dihydro-2H-benzo[b][1,4]oxazine-6-carboxamide]
O=C(NO)c1ccc2c(c1)N(Cc1ccc(Oc3ccccc3)cc1)C(=O)CO2 [Compound I-229, N-hydroxy-3-oxo-4-(4-phenoxybenzyl)-3,4-dihydro-2H-benzo[b][1,4]oxazine-6-carboxamide]
O=C(NO)c1ccc2c(c1)N(Cc1cn(-c3ccccc3)cn1)C(=O)CO2 [Compound I-205, N-hydroxy-3-oxo-4-((1-phenyl-1H-imidazol-4-yl)methyl)-3,4-dihydro-2H-benzo[b][1,4]oxazine-6-carboxamide]
CC1(C)Oc2ccc(C(=O)NO)cc2N(Cc2nc3ccccc3s2)C1=O [Compound I-295, 4-(benzo[d]thiazol-2-ylmethyl)-N-hydroxy-2,2-dimethyl-3-oxo-3,4-dihydro-2H-benzo[b][1,4]oxazine-6-carboxamide]
O=C(NO)c1ccc2c(c1)N(Cc1ccc(C(=O)N3CCCCC3)cc1)C(=O)CO2 [Compound I-150, N-hydroxy-3-oxo-4-(4-(piperidine-1-carbonyl)benzyl)-3,4-dihydro-2H-benzo[b][1,4]oxazine-6-carboxamide]
C[C@@H](c1ccccc1)N1C(=O)C(C)(C)Oc2ccc(C(=O)NO)cc21 [Compound I-303, (S)-N-hydroxy-2,2-dimethyl-3-oxo-4-(1-phenylethyl)-3,4-dihydro-2H-benzo[b][1,4]oxazine-6-carboxamide]
O=C(NO)c1ccc2c(c1)N(Cc1ccc(N3CCOCC3)cc1)C(=O)CO2 [Compound I-177, N-hydroxy-4-(4-morpholinobenzyl)-3-oxo-3,4-dihydro-2H-benzo[b][1,4]oxazine-6-carboxamide]
